For 27 compounds, IC50, viability and Activity results are on record in ChEMBL document CHEMBL5131385, “Novel piperazine based benzamide derivatives as potential anti-glioblastoma agents inhibiting cell proliferation and cell cycle progression” (Eur J Med Chem, 2022).

The source made the active and inactive calls. The calls are words filed in the database; no cut-off is given here.

Experiment [1] in a line: Antiproliferative activity against human U-87 MG cells assessed as inhibition of cell proliferation measured after 72 hrs by CCK8 assay. Format: functional, cell-based, U-87MG ATCC.
Experiment [2] deals with U-251. Description: Antiproliferative activity against human U-251 cells assessed as inhibition of cell proliferation measured after 72 hrs by CCK8 assay. Format: functional, cell-based. Particulars: U-251, 72 h.
The test system of experiment [3] is C6. Kind of experiment: Antiproliferative activity against rat C6 cells assessed as inhibition of cell proliferation measured after 72 hrs by CCK8 assay. To be noted: C6, 72 h. Format: functional, cell-based.
Experiment [4] in a line: Induction of apoptosis in human U-87 MG cells assessed as viable cells at 1.20 uM incubated for 72 hrs by Annexin V-FITC/PI staining based flow cytometry method (reference value: 96.84 %). It is filed as functional, U-87MG ATCC. Particulars: read-out: Activity. For orientation: Flow cytometry measures light scatter and fluorescence of single cells or particles in a stream.

Experiment [5] in a line: Induction of apoptosis in human U-87 MG cells assessed as early apoptotic cells at 1.20 uM incubated for 72 hrs by Annexin V-FITC/PI staining based flow cytometry method (reference value: 2.53 %). It is filed as functional, U-87MG ATCC. To be noted: dose 1.2 µM.
Experiment [6] in a line: Induction of apoptosis in human U-87 MG cells assessed as late apoptotic cells at 1.20 uM incubated for 72 hrs by Annexin V-FITC/PI staining based flow cytometry method (reference value: 0.42 %). It is filed as functional, U-87MG ATCC. To be noted: dose 1.2 µM.
Experiment [7] in a line: Induction of apoptosis in human U-87 MG cells assessed as necrotic cells at 1.20 uM incubated for 72 hrs by Annexin V-FITC/PI staining based flow cytometry method (reference value: 0.21 %). Particulars: dose 1.2 µM. It is filed as functional, U-87MG ATCC.
The subject of experiment [8] is U-251. Description: Induction of apoptosis in human U-251 cells assessed as viable cells at 6 uM incubated for 72 hrs by Annexin V-FITC/PI staining based flow cytometry method (reference value: 96.22 %). To be noted: read-out: Activity. It is filed as functional.
The subject of experiment [9] is U-251. Description: Induction of apoptosis in human U-251 cells assessed as early apoptotic cells at 6 uM incubated for 72 hrs by Annexin V-FITC/PI staining based flow cytometry method (Rvb =1.96 %). It is filed as functional.
For experiment [10], the system named is U-251. Description: Induction of apoptosis in human U-251 cells assessed as late apoptotic cells at 6 uM incubated for 72 hrs by Annexin V-FITC/PI staining based flow cytometry method (Rvb =1.31 %). It is filed as functional.
Experiment [11] deals with U-251. Description: Induction of apoptosis in human U-251 cells assessed as necrotic cells at 6 uM incubated for 72 hrs by Annexin V-FITC/PI staining based flow cytometry method (Rvb =0.51 %). It is filed as functional.
The test system of experiment [12] is U-87MG ATCC. Kind of experiment: Antitumor activity against human U-87 MG cells xenografted in BALB/c mouse assessed as decrease in tumor volume at 10 mg/kg,ip bid for 1 month. It is filed as functional, organism-based. To be noted: time 1.0 months. (In general: In xenograft studies the graft and the host belong to different species.)
Experiment [13] has as its system U-87MG ATCC. Kind of experiment: Antitumor activity against human U-87 MG cells xenografted in BALB/c mouse assessed as decrease in tumor weight at 10 mg/kg,ip bid for 1 month. Format: functional, organism-based. Particulars: time 1.0 months.

The IC50 is the concentration that gives 50% inhibition. For the compound `COCCN1CCN(c2cc(C)ccc2C(=O)Nc2ccc(CNC(=O)OCc3cccnc3)cc2)CC1`, the IC50 in experiment [1] came to 0.53 µM; in experiment [2], 2.97 µM; in experiment [3] it was 0.89 µM.
The corresponding values for `CC(C)N1CCN(c2ccccc2C(=O)Nc2ccc(CNC(=O)OCc3cccnc3)cc2)CC1` are 0.25 µM, 6.09 µM and 0.41 µM.
With `O=C(NCc1ccc(NC(=O)c2ccccc2N2CCN(C3CCC3)CC2)cc1)OCc1cccnc1`, the IC50 in experiment [1] stood at 0.62 µM; in experiment [2] it was 4.05 µM; in [3] it was 1.03 µM.
For the compound `COCCN1CCN(c2ccc(OC)cc2C(=O)Nc2ccc(CNC(=O)OCc3cccnc3)cc2)CC1`, the IC50 in [1] came out at 3.47 µM; in experiment [2], 20.5 µM; in experiment [3] it was 1.05 µM.
Consider `Nc1ccccc1NC(=O)c1ccc(CNC(=O)OCc2cccnc2)cc1` [ENTINOSTAT], for which the IC50 is 4.34 µM in experiment [1], more than 30 µM in experiment [2] and 0.33 µM in experiment [3].
The like results for `COCCN1CCN(c2ccc(Br)cc2C(=O)Nc2ccc(CNC(=O)OCc3cccnc3)cc2)CC1` were, in that order, 2.66 µM, 24.7 µM and 2.65 µM.
The like results for `COCCN1CCN(c2ccc(C(F)(F)F)cc2C(=O)Nc2ccc(CNC(=O)OCc3cccnc3)cc2)CC1` were, in that order, 8.58 µM, more than 30 µM and 13.9 µM.
The corresponding values for `COCCN1CCN(c2ccccc2C(=O)Nc2ccc(CNC(=O)OCc3cccnc3)cc2)CC1` are 0.4 µM, 3.36 µM and 0.24 µM.
Consider `COCCN1CCN(c2ccc(NC(=O)OC(C)(C)C)cc2C(=O)Nc2ccc(CNC(=O)OCc3cccnc3)cc2)CC1`, for which the IC50 in experiment [1], in experiment [2] and in experiment [3] was more than 30 µM throughout.
On to `COCCN1CCN(c2ccc(Cl)cc2C(=O)Nc2ccc(CNC(=O)OCc3cccnc3)cc2)CC1`, for which the values for the IC50 in experiment [1], in experiment [2] and in experiment [3] were 1.01 µM, 10.5 µM and 1.76 µM, respectively.
The corresponding values for `O=C(NCc1ccc(NC(=O)c2ccccc2N2CCN(C3COC3)CC2)cc1)OCc1cccnc1` are 0.49 µM, 2.35 µM and 0.57 µM.
The corresponding values for `COCCN1CCN(c2cccc(F)c2C(=O)Nc2ccc(CNC(=O)OCc3cccnc3)cc2)CC1` are 4 µM, 25 µM and 0.79 µM.
The corresponding values for `COCCN1CCN(c2c(C)cccc2C(=O)Nc2ccc(CNC(=O)OCc3cccnc3)cc2)CC1` are 1.01 µM, 9.29 µM and 0.44 µM.
With `COCCN1CCN(c2ccc(N)cc2C(=O)Nc2ccc(CNC(=O)OCc3cccnc3)cc2)CC1`, the half-maximal inhibitory concentration (IC50) in experiment [1] came to 0.56 µM; in experiment [2] it was 4 µM; in experiment [3], 0.26 µM.
The corresponding values for `CCCN1CCN(c2ccccc2C(=O)Nc2ccc(CNC(=O)OCc3cccnc3)cc2)CC1` are 0.42 µM, 6.79 µM and 0.36 µM.
The like results for `COCCN1CCN(c2cc(F)ccc2C(=O)Nc2ccc(CNC(=O)OCc3cccnc3)cc2)CC1` were, in that order, 0.53 µM, 2.3 µM and 0.22 µM.
The like results for `O=C(NCc1ccc(NC(=O)c2ccccc2N2CCN(CC3CC3)CC2)cc1)OCc1cccnc1` were, in that order, 1.08 µM, 10.6 µM and 0.8 µM.
With `O=C(NCc1ccc(NC(=O)c2ccccc2N2CCN(CCO)CC2)cc1)OCc1cccnc1`, the IC50 was found to be 0.64 µM in experiment [1], 3.23 µM in [2] and 0.29 µM in [3].
The corresponding values for `O=C(NCc1ccc(NC(=O)c2ccccc2N2CCOCC2)cc1)OCc1cccnc1` are 0.89 µM, 6.11 µM and 4.82 µM.
Regarding `CN1CCN(c2ccccc2C(=O)Nc2ccc(CNC(=O)OCc3cccnc3)cc2)CC1`, the figures for the IC50 in experiment [1], in experiment [2] and in [3] were 1.25 µM, 6.25 µM and 0.52 µM, respectively.
As to `O=C(NCc1ccc(NC(=O)c2ccccc2N2CCN(CCF)CC2)cc1)OCc1cccnc1`, the IC50 in experiment [1] worked out at 0.41 µM; in experiment [2] it was 5.89 µM; in experiment [3], 0.46 µM.
With `COCCN1CCN(c2ccc(-c3ccccc3)cc2C(=O)Nc2ccc(CNC(=O)OCc3cccnc3)cc2)CC1`, the IC50 in experiment [1], in experiment [2] and in [3] was more than 30 µM each time.
Regarding `CCN1CCN(c2ccccc2C(=O)Nc2ccc(CNC(=O)OCc3cccnc3)cc2)CC1`, the IC50 in experiment [1] was found to be 0.43 µM; in [2], 4.55 µM; in experiment [3], 0.36 µM.
In the case of `Cn1nnc2c(C(N)=O)ncn2c1=O` [TEMOZOLOMIDE], the IC50 in [1], in experiment [2] and in experiment [3] was more than 30 µM throughout. In addition, the viability at 1.2 µM in experiment [4] turned out to be 96.2%. The Activity is 2.5% in experiment [5]; 0.98% in experiment [6]; 0.27% in experiment [7]; 1.6% in experiment [9]; 1.73% in [10]; 0.49% in experiment [11]. Further, in [8], the viability at 6 µM came out at 96.2%. Further, the outcome in [12] and in experiment [13] was Active.
With `O=C(NCc1ccc(NC(=O)c2ccccc2N2CCN(C3CC3)CC2)cc1)OCc1cccnc1`, the IC50 in experiment [1] worked out at 1.04 µM; in experiment [2] it was 2.7 µM; in experiment [3], 1.12 µM.
`CS(=O)(=O)N1CCN(c2ccccc2C(=O)Nc2ccc(CNC(=O)OCc3cccnc3)cc2)CC1`: the figures for the IC50 in [1], in experiment [2] and in experiment [3] were 1.02 µM, 5.42 µM and 0.85 µM, respectively.
The corresponding values for `COCCN1CCN(c2ccc(C)cc2C(=O)Nc2ccc(CNC(=O)OCc3cccnc3)cc2)CC1` are 1.9 µM, 12.7 µM and 1.29 µM.
